How the values were obtained:
[1] = Urine levels of absorbed (bioavailable) Pu-erh tea components after a single Pu-erh tea intake, UPLC-QTOFMS and GC-TOFMS profiling; assay type: in vivo, human; details: for FC (fold change): absorbed Pu-erh tea metabolite, human urine
Method: (§1) Participants received a dose equivalent to 5 cups of commercially prepared tea. Twenty healthy men (n=10) and women (n=10) whose mean age was 25±2 years (range 22-32) were enrolled in this study, and written consent was obtained from each participant.
(§2) Volunteers were provided with identical standard meals three times per day during the experiment (e.g., breakfast: milk and bread; lunch: beef and vegetables; dinner: pork and cabbage). […] Urine samples were stored at −80° C. before analysis.
(§3) The tea infusion used in this study and the collected urine samples were centrifuged at 13,000 rpm for 10 min at 4° C., and the resulting supernatants were immediately stored at −80° C. pending UPLC-QTOFMS analysis. Ultrapure water (500 μL) was added to the tea or urine sample (500 μL) and vortexed for 1 min. The sample was then filtered through a syringe filter (0.22 μm) for UPLC-QTOFMS analysis.; incorporated by reference herein in its entirety.
(§4) The tea infusion (100 μL) described in Example 2 and urine samples (100 μL) were spiked with two internal standard solutions (10 μL-2-chlorophenylalanine in water, 0.3 mg/ml; 10 μL heptadecanoic acid in methanol, 1 mg/mL), and vortexed for 10 seconds. The mixed solution was extracted with 300 μL of methanol:chloroform (v/v 3:1) and vortexed for 30 seconds. After storing for 10 min at −20° C., the samples were centrifuged at 10,000 rpm for 10 min. An aliquot of the 300 μL supernatant was transferred to a glass sampling vial to vacuum dry at room temperature. The residue was derivatized using a two-step procedure. First, 80 μL methoxyamine (15 mg/mL in pyridine,) was added to the vial and kept at 30° C. for 90 min followed by 80 μL BSTFA (1% TMCS) at 70° C. for 60 min. See protocols set forth in Ni et al., FEBS Lett. 581: 707-711 (2007).; incorporated by reference herein in its entirety.
(§5) UPLC: Tea and urine metabolite profiling were performed using a Waters ACQUITY UPLC system equipped with a binary solvent delivery manager and a sample manager (Waters Corporation, Milford, Mass., USA), coupled to a Micromass Q-TOF Premier mass spectrometry equipped with an electrospray interface (Waters Corporation, Milford, M A, USA). Chromatographic separations were performed on a 2.1×100 mm 1.7 μm ACQUITY BEH C18 chromatography column. The column was maintained at 45° C. and eluted with a 1-99% acetonitrile (0.1% (v/v) formic acid)-aqueous formic acid (0.1% (v/v) formic acid) gradient over 10 min at a flow rate of 0.40 mL/min. A 5 μL aliquot sample was injected onto the column.
(§6) Mass Spectrometry: The mass accuracy analysis and detailed MS parameters were optimized according to our prior studies, which is incorporated herein in its entirety. During metabolite profiling experiments, centroid data was acquired for each sample from 50 to 1000 Da with a 0.10 sec scan time and a 0.01 sec interscan delay over a 10 min analysis time. A metabonomics MS System Test Mixture including acetaminophen, tolbutamide, 3′-azido-3′-deoxythymidine, reserpine, verapamil and coumarin was used as chromatographic reference and mass accuracy quality control. This test mixture was injected every ten injections. The mass spectrometer was operated in positive ion mode. The desolvation temperature was set to 400° C. at a flow rate of 700 L/hr and source temperature of 100° C. The capillary and cone voltages were set to 3500 and 45 V, respectively. The data was collected between 50-1000 m/z with alternating collision energy, at 5 eV for precursor ion information generation and a collision profile from 10-40 eV for fragment ion information. The Q-TOF Premier™ was operated in v mode with 10,000 mass resolving power. Data were centroided during acquisition using independent reference lock-mass ions via the LockSpray™ interface to ensure mass accuracy and reproducibility. Leucine-enkephalin was used as the reference compound at a concentration of 50 pg/μL and an infusion flow rate of 0.05 mL/min.

[2] = tested on: human metabolite endpoints; test: Urinary metabolomic response during 6-week study (24 h, 2 week daily Pu-erh tea intake, 2 week wash-out) vs pre-dose, OPLS-DA and S-plot; assay type: in vivo; details: 2 week of Pu-erh tea daily intake vs pre-dose, human urine
Method: as §2

[3] = Pearson correlation of absorbed, biotransformed plant metabolites and altered endogenous metabolites in urine; assay type: in vivo, human; details: ρ≧0.7 or ρ≦−0.7, urine, FIG. 13
Method: Similarly, in order to study the relationship of dynamic response of metabolites along with the time course, mean value of each metabolite was calculated at each time point (0 h→1 h→2 h→3 h→6 h→12 h→24 h). A new metabolite vector with 7 mean values calculated at 7 different time points, representing the average response, was constructed and the Pearson correlation coefficients were calculated similarly with the pair-wise comparison of metabolites.

[4] = tested on: endogenous urinary metabolite profiles; test: Altered endogenous urinary metabolites after a single Pu-erh tea intake, UPLC-QTOFMS and GC-TOFMS profiling; assay type: in vivo; details: human urine
Method: as §1, §2, §3, §4, §5, §6

[5] = Urine levels of biotransformed Pu-erh tea metabolites (produced in vivo) after a single Pu-erh tea intake, UPLC-QTOFMS and GC-TOFMS profiling; set-up: species or system human
Method: Approximately 1 kg of 5-year-old Pu-erh tea was mixed to produce a homogeneous sample, and then ground into a fine powder and filtered through a 20 mesh screen. The Pu-erh tea was prepared by infusing 10 g powder in 200 mL boiling water for 10 min, followed by straining. Participants received a dose equivalent to 5 cups of commercially prepared tea. Twenty healthy men (n=10) and women (n=10) whose mean age was 25±2 years (range 22-32) were enrolled in this study, and written consent was obtained from each participant.
Volunteers were provided with identical standard meals three times per day during the experiment (e.g., breakfast: milk and bread; lunch: beef and vegetables; dinner: pork and cabbage). Urine samples of 12 healthy men (n=6) and women (n=6) selected from the 20 participants were collected just before breakfast including the 200 mL Pu-erh tea and at 1 h, 3 h, 6 h, 9 h, 12 h, and 24 h thereafter. Spot urine samples of all 20 participants were collected daily between 11:00 and 11:30 a.m. during a 6-week period that included a 2-week baseline phase, a 2-week daily Pu-erh tea ingestion phase, and a 2-week post-dosing phase. […] Urine samples were stored at −80° C. before analysis.
as §3, §4, §5
Mass Spectrometry: The mass accuracy analysis and detailed MS parameters were optimized according to our prior studies, which is incorporated herein in its entirety. During metabolite profiling experiments, centroid data was acquired for each sample from 50 to 1000 Da with a 0.10 sec scan time and a 0.01 sec interscan delay over a 10 min analysis time. A metabonomics MS System Test Mixture including acetaminophen, tolbutamide, 3′-azido-3′-deoxythymidine, reserpine, verapamil and coumarin was used as chromatographic reference and mass accuracy quality control. This test mixture was injected every ten injections. The mass spectrometer was operated in positive ion mode. […]

[6] = 1 h after Pu-erh tea intake vs pre-dose
[7] = 3 h after Pu-erh tea intake vs pre-dose
[8] = 6 h after Pu-erh tea intake vs pre-dose
[9] = 9 h after Pu-erh tea intake vs pre-dose
[10] = 12 h after Pu-erh tea intake vs pre-dose
[11] = 24 h after Pu-erh tea intake vs pre-dose

Compound	FC (fold change) ([1]; 1 h post-dose vs pre-dose)	FC (fold change) ([1]; 3 h post-dose vs pre-dose)	FC (fold change) ([1]; 6 h post-dose vs pre-dose)	FC (fold change) ([1]; 9 h post-dose vs pre-dose)	FC (fold change) ([1]; 12 h post-dose vs pre-dose)	FC (fold change) ([1]; 24 h post-dose vs pre-dose)	also measured
O=C(O)c1cccnc1 [Nicotinic acid]	14.31	62.95	78.98	63.95	49.02	27.31	
O=C(O)c1cc(O)cc(O)c1 [3,5-hydroxy benzoic acid]				0.42	0.47	0.20	
3-chlorotyrosine-2-aminobenzoic acid							change of urinary excretion / concentration [2]: decreased
Cc1cnc(C)c(O)c1C=O [5-Deoxypyridoxal]	2.56	3.69	3.68	2.35	0.91	0.81	
Oc1ccc2[nH]c(O)cc2c1 [2,5-dihydroxy-1H-indole]							change of urinary excretion / concentration [2]: decreased
Cn1c(=O)c2c(ncn2C)n(C)c1=O [Caffeine]	454.37	573.74	437.21	277.02	160.06	46.28	time at which concentration reached maximum levels in urine ([1]; absorbed plant metabolites, after oral administration of Pu-erh tea, FIG. 10A): 1 h; time at which cleared away from urine ([1]; absorbed plant metabolites, post-dose, FIG. 10A): 9 h; correlation with its biodegradated metabolites paraxanthine, theophylline, hippuric acid and 3-hydroxyphenylacetic acid [3]: positively corrected
NCC(=O)O [Glycine]	1.28	1.67	2.32	1.53	1.77	1.04	
COc1cc(CC(=O)O)ccc1O [4-Hydroxy-3-methoxyphenylacetic acid]							FC (fold change) [4, 6]: 0.39; FC (fold change) [4, 7]: 0.11; FC (fold change) [4, 8]: 0.27; FC (fold change) [4, 9]: 0.55; FC (fold change) [4, 10]: 0.85; FC (fold change) [4, 11]: 1.12
CCN [Ethylamine]							FC (fold change) [5, 7]: 3.10; FC (fold change) [5, 8]: 3.87; FC (fold change) [5, 9]: 2.65; FC (fold change) [5, 10]: 3.09; FC (fold change) [5, 11]: 1.58; FC (fold change) ([5]; l h after Pu-erh tea intake vs pre-dose): 1.73
Cn1cnc2c1c(=O)[nH]c(=O)n2C [Theobromine]	4.04	6.76	7.75	5.42	4.43	2.67	
Cn1c(=O)c2[nH]cnc2n(C)c1=O [Theophylline]	11.62	42.69	54.55	45.99	38.67	19.22	
NC(C(=O)O)C(=O)O [Aminomalonic acid]							FC (fold change) [4, 6]: 1.90; FC (fold change) [4, 7]: 3.09; FC (fold change) [4, 8]: 3.09; FC (fold change) [4, 9]: 0.45; FC (fold change) [4, 10]: 0.57; FC (fold change) [4, 11]: 0.35
COc1ccc(CC(=O)O)cc1 [4-methoxyphenylacetic acid]							change of urinary excretion / concentration [2]: increased
NCCCC(=O)O [4-Aminobutanoic acid]	3.95	5.14	24.12	39.08	100.29	49.03	FC (fold change) [4, 6]: 3.95; FC (fold change) [4, 7]: 5.14; FC (fold change) [4, 8]: 24.12; FC (fold change) [4, 9]: 39.08; FC (fold change) [4, 10]: 100.29; FC (fold change) [4, 11]: 49.03
COc1ccccc1O [2-Methoxyphenol]							FC (fold change) [4, 6]: 0.48; FC (fold change) [4, 7]: 0.31; FC (fold change) [4, 8]: 0.31; FC (fold change) [4, 9]: 0.41; FC (fold change) [4, 10]: 0.59; FC (fold change) [4, 11]: 0.61
Oc1ccccc1 [Phenol]							FC (fold change) [4, 6]: 1.04; FC (fold change) [4, 7]: 1.22; FC (fold change) [4, 8]: 1.43; FC (fold change) [4, 9]: 1.14; FC (fold change) [4, 10]: 1.32; FC (fold change) [4, 11]: 2.22
O=C(O)CCC(=O)O [Succinate]	1.15	0.90	0.74	0.57	0.84	0.93	
N[C@@H](Cc1c[nH]c2ccc(O)cc12)C(=O)O [5-hydroxytryptophan]							change of urinary excretion / concentration [2]: increased
CC(C)[C@H](N)C(=O)O [Valine]							FC (fold change) [4, 6]: 2.58; FC (fold change) [4, 7]: 1.25; FC (fold change) [4, 8]: 2.16; FC (fold change) [4, 9]: 2.32; FC (fold change) [4, 10]: 2.76; FC (fold change) [4, 11]: 1.38
O[C@H]1[C@H](O)[C@@H](O)[C@H](O)[C@@H](O)[C@H]1O [inositol]							change of urinary excretion / concentration [2]: increased
O=C(O)CC(O)(CC(=O)O)C(=O)O [Citric acid]	1.42	1.76	1.59	1.20	1.42	1.17	
